Like-named read-outs stand apart in the source and are kept apart here.
Key:
[1] = lipid content 20% by weight, room temperature
From the text: Ester mixture A: a glycerol triesters of caprylic acid (70%) and capric acid (30%)
Ester mixture D: 50% soy bean oil and 50% glycerol triesters of caprylic acid (70%) and capric acid (30%)

[2] = lipid content 20%, room temperature
[3] = Ester mixture A (glycerol triesters of caprylic acid 70% and capric acid 30%)
[4] = Ester mixture B (propylene glycol diesters of caprylic acid 75% and capric acid 25%)
[5] = Ester mixture C (75% glycerol triesters, 12.5% diesters, 12.5% monoesters of caprylic/capric acid)
[6] = Ester mixture D (50% soy bean oil and 50% glycerol triesters of caprylic acid 70% and capric acid 30%)

Row | Structure (SMILES) | Solubility of the medicament in the emulsion [1, 3] | Solubility of the medicament in the emulsion [1, 4] | Solubility of the medicament in the emulsion [1, 5] | Solubility of the medicament in the emulsion [1, 6] | Solubility of the medicament in the emulsion ([1]; Soy bean oil) | Solubility of nimodipine in soy bean oil emulsion ([2]; benzyl alcohol 0% W/W) | Solubility of nimodipine in soy bean oil emulsion ([2]; benzyl alcohol 2% W/W) | Solubility of nimodipine in soy bean oil emulsion ([2]; benzyl alcohol 4% W/W) | Solubility of nimodipine in soy bean oil emulsion ([2]; benzyl alcohol 5% W/W)
1 | COC(=O)C1=C(C)NC(C)=C(C(=O)OCC(C)C)C1c1ccccc1[N+](=O)[O-] (stereo not shown) [Nisoldipine] | 0.14 % (W/W) | 0.18 % (W/W) | 0.20 % (W/W) | 0.08 % (W/W) | 0.04 % (W/W) | – | – | – | –
2 | CCCOC(=O)Cc1ccc(OCC(=O)N(CC)CC)c(OC)c1 [Propanidide] | – | – | – | – | 2.80 % (W/W) | – | – | – | –
3 | CC(c1ccc(Cl)c(Cl)c1)N1N=C(N)CC1=O (stereo not shown) [Muzolimine] | 0.06 % (W/W) | 0.06 % (W/W) | 0.32 % (W/W) | 0.02 % (W/W) | 0.01 % (W/W) | – | – | – | –

Next, values leading:

Row | Solubility of the medicament in the emulsion [1, 3] | Solubility of the medicament in the emulsion [1, 4] | Solubility of the medicament in the emulsion [1, 5] | Solubility of the medicament in the emulsion [1, 6] | Solubility of the medicament in the emulsion ([1]; Soy bean oil) | Solubility of nimodipine in soy bean oil emulsion ([2]; benzyl alcohol 0% W/W) | Solubility of nimodipine in soy bean oil emulsion ([2]; benzyl alcohol 2% W/W) | Solubility of nimodipine in soy bean oil emulsion ([2]; benzyl alcohol 4% W/W) | Solubility of nimodipine in soy bean oil emulsion ([2]; benzyl alcohol 5% W/W) | Structure (SMILES)
4 | 0.16 % (W/W) | 0.26 % (W/W) | 0.50 % (W/W) | 0.08 % (W/W) | 0.04 % (W/W) | 0.04% | 0.08% | 0.16% | 0.18% | COCCOC(=O)C1=C(C)NC(C)=C(C(=O)OC(C)C)C1c1cccc([N+](=O)[O-])c1 (stereo not shown) [Nimodipine]
5 | 0.08 % (W/W) | 0.12 % (W/W) | 0.14 % (W/W) | 0.05 % (W/W) | 0.03 % (W/W) | – | – | – | – | CCOC(=O)C1=C(C)NC(C)=C(C(=O)OC)C1c1cccc([N+](=O)[O-])c1 (stereo not shown) [Nitrendipine]
